Source: patent US7435790B2, “Dihydroxypropyl cysteine peptide and agent containing this peptide” (Helmholtz-Zentrum fuer Infektionsforschung GmbH, priority 1996, dated 2008)
pEC50: −log10 of the molar value.

Columns and labels:
macrophages of mice = conditions: cited from earlier work
[1] = system: interferon-treated murine peritoneal macrophages; assay: Nitrite/nitrate (nitrogen monoxide) release on stimulation of interferon-treated murine peritoneal macrophages; format: cell-based; conditions: mouse system
Experimental: The lipopeptide is prepared from Mycoplasma fermentans (for example PG18). The isolation of the lipopeptide from mycoplasma is carried out by the following known separation procedure (Mühlradt et al. in Biochemistry, 35 (1996) 7781-7786). • (i) Delipidation of the mycoplasma using chloroform/methanol. • (ii) Extraction of the delipidated mycoplasma using hot 25 mM octyl glucoside. • (iii) Dialysis of the detergent extract. • (iv) Concentration of the extract by lyophilisation. • (v) Reversed-phase chromatography on a C8 column using a water/2-propanol gradient. Detection of the biological activity is effected by measuring nitrite and nitrate as the secondary products of nitrogen monoxide, which is liberated on stimulation of interferon-treated murine peritoneal macrophages.
Immun., 59 (1991) 3962-3968 and Feng & Lo in Infect. Immun., 62 (1994) 3916-3921. Its half-maximum effective concentration (Max/2) is 20 pg/ml or 10^−11 M in the mouse system. That effective concentration is lower by a factor of from 10^2 to 10^3 than the corresponding known concentrations of similar natural or synthetic lipopeptides.

macrophages of humans = conditions: cited from earlier work

Dhc-GNN DES NIS FKE K: S-(2,3-dihydroxypropyl)-cysteine peptide from Mycoplasma fermentans with two ester-bonded long-chain fatty acids (C16:0 and C18:0/C18:1)
release of cytokines and prostaglandins from macrophages (macrophages of mice): stimulating macrophages of mice and humans to release cytokines and prostaglandins | half-maximum effective concentration (Max/2) [1]: 20 pg/mL | pEC50 ([1]; read-out: half-maximum effective concentration (Max/2)): 11.00 | release of cytokines and prostaglandins from macrophages (macrophages of humans): stimulating macrophages of mice and humans to release cytokines and prostaglandins
